According to patent US20260027083A1, “USE OF PPAR AGONIST FOR IMPROVEMENT OF ENERGY METABOLISM” (NOVMETAPHARMA CO., LTD., priority 2022, published 2026):

Experiments:
[1] = test system: high-fat diet mice; assay: Intraperitoneal glucose tolerance test (IP-GTT) in high-fat diet mice; format: in vivo, C57BL/6J mice; conditions: 5 mg/kg/day oral, 60% HFD, glucose 2 g/kg i.p. after 16 h fasting, FIG. 10
Protocol: (§1) The care and use of experimental animals were carried out with the approval of the Institutional Animal Care and Use Committee of Pohang University of Science and Technology. C57BL/6J mice were purchased from Japan SLC, Inc. 50 four-week-old male C57/BL/6J mice were acclimated for 2 weeks. The mice were randomly divided and orally administered with vehicle or 5 mg/kg/day of D6 or WY14643 for 13 weeks (oral gavage), and obesity was induced by a 60% high-fat diet (#D12492, Research diets, NJ, USA). Body weights and food intakes were measured weekly from 6 weeks of age, and after 16 weeks of age, adipose tissue and muscle volumes were measured using a Trimodality imaging system.
A glucose tolerance test (GTT) was performed on mice after 16 weeks of age after fasting for 16 hours and intraperitoneal glucose administration at 2 g/kg body weight. The blood glucose levels were measured at 0, 15, 30, 45, 60, 90, and 120 minutes after tail vein injection.
(§2) To confirm a metabolic disease inhibitory effect of the compound represented by Chemical Formula 1 through animal experiments, mice were acclimated for 2 weeks, and then obesity was induced by feeding a 60% high fat diet (HFD) and orally administered with vehicle or 5 mg/kg/day of the compound represented by Chemical Formula 1 (D6) or WY14643 for 13 weeks. […]

[2] = test system: high-fat diet mice; assay: Intraperitoneal insulin tolerance test (IP-ITT) in high-fat diet mice; format: in vivo, C57BL/6J mice; conditions: 5 mg/kg/day oral, 60% HFD, insulin 0.75 U/kg i.p. after 3 h fasting, FIG. 11
Protocol: as §1
An insulin tolerance test (ITT) was performed on mice after 17 weeks of age after fasting for 3 hours and intraperitoneal insulin administration at 0.75 U/kg body weight. The blood glucose levels were measured at 0, 15, 30, 45, 60 and 90 minutes after tail vein injection.
as §2

[3] = biological target: T1, His-tagged recombinant human PPARα ligand binding domain (Homo sapiens, UniProt Q07869); assay: CNBr-bead conjugation (pull-down) assay, hPPARα-LBD; conditions: CNBr-coupled drug, positive control WY14643, FIG. 2
T1 construct: made in house; host or cells: E. coli (DE3, Rosetta)
T1 sequence (Q07869 239-466 limits assumed): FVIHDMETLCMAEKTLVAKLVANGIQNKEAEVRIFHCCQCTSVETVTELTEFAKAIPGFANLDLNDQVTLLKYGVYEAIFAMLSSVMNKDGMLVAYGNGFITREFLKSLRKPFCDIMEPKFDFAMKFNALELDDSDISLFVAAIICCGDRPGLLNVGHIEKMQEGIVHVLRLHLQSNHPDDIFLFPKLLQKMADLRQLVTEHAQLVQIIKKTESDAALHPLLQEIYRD
Protocol: A compound of the present invention represented by Chemical Formula 1 was synthesized by DAEJUNG Chemicals & Metals (Gyeonggi-do, Korea) (indicated as ‘D6’ in the drawing). WY14643, GW501516, and rosiglitazone were purchased from Sigma-Aldrich (St. Louis, MO, USA). The compounds were dissolved in dimethyl sulfoxide (DMSO), diluted in a culture solution, and used in the experiment. Cyanogen bromide (CNBr)-activated Sepharose 4B was purchased from Sigma-Aldrich (St. Louis, MO, USA). His-tagged recombinant human PPAR-ligand binding domain (LBD) was expressed in E. coli (DE3, Rosetta) and then purified and used. A His antibody was purchased from Cell Signaling Technology (Danvers, Massachusetts, USA). 3-Isobutyl-1-methylxanthine (IBMX), dexamethasone, bovine pancreatic insulin, and Oil Red O were purchased from Sigma-Aldrich (St. Louis, MO, USA). A PRO-PREP™ Protein Extraction Solution was purchased from iNtRON Biotechnology (iNtRON Biotech., Korea). […]
100 mg of CNBr-activated Sepharose 4B was added to an e-tube, and then the beads were activated by rotating with 1 ml of 1 mM HCl for 10 minutes at room temperature. […] Each e-tube was added with the drug and rotated overnight at 4° C., at which time the concentration was measured to be 20 μM. […] The supernatant was completely removed, and the pellet was detected by Western blotting. […]

In the case of `COc1ccc(-c2cc(=O)oc3c(C)c(OC(=O)[C@H](Cc4c[nH]c5ccccc45)NC(=O)OC(C)(C)C)ccc23)cc1` [Chemical Formula 1, [4-(4-methoxyphenyl)-8-methyl-2-oxochromen-7-yl] (2S)-3-(1H-indol-3-yl)-2-[(2-methylpropan-2-yl)oxycarbonylamino]propanoate], the “glucose tolerance (IP-GTT)” value [1] is reported as “improved”, the “insulin resistance (IP-ITT)” value [2] is reported as “improved” and the “conjugation (binding) to hPPARα-LBD, Western blotting” value [3] is reported as “as much potently as a PPAR agonist used as a positive control”.
